Experimental data as given in US8937090B2, “Parakeratosis inhibitor, pore-shrinking agent and external composition for skin” (Shiseido Company, Ltd., priority 2005, dated 2015).

Key:
hairless mice (HR-1) = assay: Inhibiting effect on rough skin induced by oleic acid application (transepidermal water loss); assay type: in vivo, mouse; design: ΔTEWL value: unit not given here; conditions: for rough skin preventing/ameliorating effect (ΔTEWL value versus control aqueous solution): in words, summary of Table 3; for ΔTEWL value: average of four mice, 3 days after 10 mass % oleic acid, control 12.0, increase = rough skin worse
Method: In order to investigate the inhibiting effect of β-alanine derivatives and salts thereof on rough skin induced by oleic acid application, the transepidermal water loss (TEWL value) before and after application was measured, the difference was compared with the control (control aqueous solution), and the effect was determined. […] The TEWL was determined using the TM210 TEWA Meter (Courage+Khazaka Electronic GmBH).
100 μL of 10 mass % oleic acid (solvent: ethanol) was applied to the back of hairless mice (HR-1, four mice per group). Then a sample solution (β-alanine derivatives) was applied 100 μL at a time. This procedure was continued for three days. On the following day, the TEWL value of the back was determined and the values of the four animals were averaged.

panel of 20 women = assay: Sensory irritation tests; assay type: in vivo, human; conditions: for sensory irritation: in words, summary of Table 4; for Evaluation (sensory irritation, class of average rating): 1 mL to cheek, rated for ten minutes
Method: 1 mL of a control aqueous solution and the sample aqueous solution prepared in Example 1 were applied using a cotton swab to the left or right cheek, respectively, of each member of a panel of 20 women, and the irritating sensation was evaluated every 30 seconds for ten minutes beginning immediately after application, whereby a final evaluation was reported. The evaluation of the irritating sensation was made based on the following four levels of rating criteria, and the average rating was calculated, whereby the average was classified by the following criteria.
3: Continuation is not possible because of extremely strong irritation, such as tingling sensation, burning sensation, stinging sensation, itching, and the like.
2: Intolerable because of strong irritation, such as tingling sensation, burning sensation, stinging sensation, itching, and the like.
1: Tolerable, but with slight irritation such as tingling sensation, burning sensation, stinging sensation, itching, and the like.
0: Not particularly irritating.
(Evaluation Criteria) • A: average rating of less than 0.2 • B: average rating of from 0.2 to less than 1.0 • C: average rating of from 1.0 to less than 2.0 • D: average rating of 2.0 or greater

[1] = tested on: cheeks of healthy human males; assay: Human pore-shrinking effect (replica of cheek pores, three-dimensional laser scanning microscope); assay type: in vivo; conditions: for pore-shrinking effect: in words, summary of Table 2; for Replica assessment value (average of n = 5): twice a day for one month, pore size rating (1-13) after minus before application, control 0.3
Method: An experiment was conducted whereby a sample was applied twice a day for one month to the cheeks of healthy human males in groups of 5 men each. Aqueous solutions (containing 15 mass % of ethanol) of 3 mass % of the β-alanine derivative or a salt thereof were prepared mainly as the evaluation sample. The pH was regulated by hydrochloric acid or sodium hydroxide so as to be 7.0 to 7.5. When the sample solubility was low, the solution was prepared accordingly. The control was an aqueous 15% ethanol solution. The sample aqueous solution and the control aqueous solution were applied to one half of the face at a time.
A replica was collected before and after continuous application, and changes in the shape of the pores at the same site were observed using a three-dimensional laser scanning microscope. The size of the pores was visually evaluated in the 13 steps of 1 through 13 (with the pores becoming larger as the numbers became larger), the difference in the ratings before and after application (after application—before application) was calculated, and the efficacy of each sample was studied using this difference as the replica assessment value.

hairless mouse (HR-1) = assay: Parakeratosis-inhibiting effect test (oleic acid applied to back of hairless mouse; visual rough skin evaluation and parakeratosis value); assay type: in vivo; conditions: for parakeratosis-inhibiting effect: in words, summary of Table 1; for Visual evaluation (average of four animals): rough skin score, control = 2.0, no skin roughness = 0.0, 3 days application after 10 mass % oleic acid; for Parakeratosis value (average of four animals): scale 1.0 to 3.0, higher = parakeratosis advanced, control 2.0
Method: Aqueous solutions (containing 30 mass % of ethanol) of 3 mass % of a β-alanine derivative or salt thereof were prepared mainly as the evaluation sample. The pH was regulated by hydrochloric acid or sodium hydroxide so as to be 7.0 to 7.5. When sample solubility was low, the solution was prepared accordingly.
100 μL of 10 mass % oleic acid solution (solvent: ethanol) were applied to the back of a hairless mouse (HR-1; Hoshino Laboratory Animals). Then the sample solution (β-alanine derivative, and the like) was applied 100 μL at a time. This procedure was continued for three days. […] At the same time, the stratum corneum at the back of the hairless mouse was peeled off with tape, the nuclei were stained by hematoxylin, and the degree of parakeratosis was observed and evaluated by a parakeratosis value within a range of 1.0 to 3.0 (in 0.25 increments).

SMILES | rough skin preventing/ameliorating effect (ΔTEWL value versus control aqueous solution) (hairless mice (HR-1)) | ΔTEWL value (hairless mice (HR-1); sample 3 mass %) | sensory irritation (panel of 20 women) | Evaluation (sensory irritation, class of average rating) (panel of 20 women; sample 3 mass %) | pore-shrinking effect [1] | Replica assessment value (average of n = 5) ([1]; sample 3 mass %) | parakeratosis-inhibiting effect (hairless mouse (HR-1)) | Visual evaluation (average of four animals) (hairless mouse (HR-1); sample 3 mass %) | Parakeratosis value (average of four animals) (hairless mouse (HR-1); sample 3 mass %) | ΔTEWL value (hairless mice (HR-1); sample 1 mass %) | Evaluation (sensory irritation, class of average rating) (panel of 20 women; sample 1 mass %) | Replica assessment value (average of n = 5) ([1]; sample 1.0 mass %) | Visual evaluation (average of four animals) (hairless mouse (HR-1); sample 1 mass %) | Parakeratosis value (average of four animals) (hairless mouse (HR-1); sample 1 mass %)
O=C(O)CCNCC1CCCCC1 [N-cyclohexylmethyl-β-alanine] | effect was seen | 8.9 | no problem of sensory irritation | A (average rating of less than 0.2) | effect was seen | −0.8 | reduced the parakeratosis value | 1.1 | 1.1 |  |  |  |  | 
O=C(O)CCNC1CCCCC1 [N-cyclohexyl-β-alanine] | effect was seen | 9.0 | no problem of sensory irritation |  | effect was seen | −0.9 | reduced the parakeratosis value | 1.1 | 1.1 |  |  |  |  | 
COc1ccccc1C(=O)NCCC(=O)O [N-(2′-methoxybenzoyl)-β-alanine] | effect was seen | 7.0 | no problem of sensory irritation | A (average rating of less than 0.2) | effect was seen | −0.9 | reduced the parakeratosis value | 1.1 | 1.1 |  |  |  |  | 
CNCCC(=O)O [N-methyl-β-alanine] | effect was seen | 6.8 | no problem of sensory irritation | A (average rating of less than 0.2) | effect was seen | −1.0 | reduced the parakeratosis value | 1.1 | 1.2 |  |  |  |  | 
COc1cc(C(=O)NCCC(=O)O)cc(OC)c1OC [N-(3′,4′,5′-trimethoxybenzoyl)-β-alanine] | effect was seen | 6.9 | no problem of sensory irritation | A (average rating of less than 0.2) | effect was seen | −0.6 | reduced the parakeratosis value | 1.1 | 1.1 |  |  |  |  | 
Cl.NCCC(N)=O [β-alanine amide hydrochloride salt] | effect was seen | 8.9 | no problem of sensory irritation | A (average rating of less than 0.2) | effect was seen | −0.3 | reduced the parakeratosis value | 1.3 | 1.3 |  |  |  |  | 
O=C(O)CCNC(=O)c1cccnc1 [N-nicotinoyl-β-alanine] | effect was seen |  | no problem of sensory irritation |  | effect was seen |  | reduced the parakeratosis value |  |  | 6.0 | A (average rating of less than 0.2) | −0.8 | 1.1 | 1.2
O=C(O)CCNC(=O)C1CCCCC1 [N-cyclohexylcarbonyl-β-alanine] | effect was seen | 8.0 | no problem of sensory irritation | A (average rating of less than 0.2) | effect was seen | −0.6 | reduced the parakeratosis value | 1.1 | 1.2 |  |  |  |  | 
CN(CCC(=O)O)C1CCCCC1 [N-cyclohexyl-N-methyl-β-alanine] | effect was seen | 5.5 | no problem of sensory irritation | A (average rating of less than 0.2) | effect was seen | −0.8 | reduced the parakeratosis value | 1.4 | 1.4 |  |  |  |  | 
O=C(O)CCNC(=O)c1ccccc1 [N-benzoyl-β-alanine] | effect was seen | 4.0 | no problem of sensory irritation | A (average rating of less than 0.2) | effect was seen |  | reduced the parakeratosis value | 1.1 | 1.1 |  |  | −1.5 |  | 
O=C(O)CCN1CCCCC1 [3-(1′-piperidine)-propionate, 3-(1′-piperidine)-propionic acid] | effect was seen | 5.5 | no problem of sensory irritation | A (average rating of less than 0.2) | effect was seen | −1.2 | reduced the parakeratosis value | 1.4 | 1.4 |  |  |  |  | 
